According to patent publication US6395717B1, “Therapeutic drug for endotoxin blood symptom and multi-organ failure induced thereby” (priority 1995, dated 2002):

Key:
[1] = test system: renal failure induced by endotoxin; experiment: Effect upon renal failure induced by endotoxin (kidney clearance of inulin and paraaminohippuric acid); format: in vivo, Whister-strain rats; conditions: 10 mg/Kg intravenous
Description: Into each of ten Whister-strain rats (8 to 9 week age) having undergone cannulation at the carotid canal and the bladder was intraveneously drip-infused a 4% manitol solution containing inulin (5 mg/ml) and paraaminohippuric acid (2.5 mg/ml) at a rate of 0.1144 ml/min. Thirty minutes thereafter, a physiological saline solution of sialic acid ([…]) was administered, at a rate of 0.2 ml/100 g (dosage: 10 mg/Kg), to each of the rats administered with sialic acid, whereas the same amount of physiological saline was rapidly interveneously injected to the control rats. Another thirty minutes thereafter, a physiological saline solution of endotoxin was interaveneously injected to the rats (dosage: 0.25 mg/Kg). Then, blood and urine were sampled over 90 minutes, and the concentrations of inulin and paraaminohippuric acid were measured. A kidney clearance was calculated according to the following formula. Urine was collected at an interval of 15 minutes after the administration of sialic acid or physiological saline (in FIG. 2, −15 to 0 minutes, 0 to 15 minutes, 15 to 30 minutes, 30 to 45 minutes and 45 to 60 minutes), and blood was sampled at a middle point of a time period during urine-collecting. The clearance values are shown at such middle points for the respective fractions.
Kidney clearance=Amount of the drug recovered in urine collected in the collecting time period÷Concentration of the drug in plasma at the middle point
The concentration of inulin was measured by the Dishe & Borefreund's method (Z. Dishe and E. Borefreund, J. Biol. Chem., 192, 583-587 (1951)), and the concentration of paraaminohippuric acid was measured by the Marshall's method (E. K. Marshall, J. Biol. Chem., 122, 263-273 (1937)).
Results of the ratio in the filtering speed through glomerulus are shown in FIG. 2, and results of the ratio in renal plasma flow are in FIG. 3. In both the figures, the ordinate means the ratio in the filtering speed through glomerulus or the ratio in the renal plasma flow for 30 minutes between the intraveneous dip infusion of inulin and paraaminohippuric acid and the intraveneous injection of sialic acid or physiological saline.

endotoxin-shock = experiment: Effect of sialic acid in reduction of endotoxin-shock (survival 24 hours after endotoxin); format: in vivo, SMA-strain male mice; conditions: living mice 24 hours later
Description: Tests were conducted with respect to endotoxin-sensitive, SMA-strain male mice (20 to 30 g) used: (1) sixteen control mice, (2) eight mice each administrated with sialic acid and (3) six mice each administrated with a polymer of sialic acid. (1) With respect to the control mice, 0.1 ml/10 g of physiological saline was peritoneally administrated 30 minutes before the administration of an endotoxin. (2) With respect to the mice administrated with sialic acid, a solution in which 100 mg of sialic acid was dissolved in 10 ml of physiological saline or a ten-times diluted solution thereof was peritoneally administrated to the mouse at a rate of 0.1 ml/10 g of the mouse (Dosage: 100 mg/Kg, 10 mg/Kg). (3) With respect to the mice administrated with the sialic acid polymer, a solution in which 100 mg of a dimer or a trimmer of sialic acid was dissolved in 10 ml of physiological saline or a ten-times was peritoneally administrated to the mouse at a rate of 0.1 ml/10 g (Dosage: 100 mg/Kg). Thirty minutes after the administration, a physiological saline solution of endotoxin (10 mg/ml) was peritoneally administrated to the mouse at a rate of […] (administrated amount: 100 mg/Kg). Then, the number of living mice 24 hours later was checked. […]

[2] = endotoxin 0.25 mg/Kg iv 30 minutes later, 30 minutes after endotoxin administration

Q: Which “influence on the ratio in the filtering speed through glomerulus and the ratio in the renal plasma flow, sialic acid alone” value ([1]; before endotoxin administration) does the source give for `CC(=O)N[C@H]1[C@H]([C@H](O)[C@H](O)CO)OC(O)(C(=O)O)C[C@@H]1O` (stereo partly drawn) [sialic acid, N-acetylneuraminic acid] here?
A: The value was “no influence was observed”.

Q: What about the “decrease of the ratio in the filtering speed through glomerulus” value [1, 2] of the same molecule?
A: Its value is 30%.

Q: And the “decrease of the ratio in the renal plasma flow” value [1, 2]?
A: Its value is 20%.

Q: And the “reduction in both the ratio in the filtering speed through glomerulus and the ratio in the renal plasma flow due to endotoxin” value ([1]; risk degree of 5% versus control rats)?
A: Its value is “significantly prevented”.

Q: And the survival rate (endotoxin-shock; 10 mg/Kg peritoneally 30 minutes before endotoxin 100 mg/Kg peritoneally, n=8)?
A: Its survival rate is 50%.

Q: And the survival rate (endotoxin-shock; 100 mg/Kg peritoneally 30 minutes before endotoxin 100 mg/Kg peritoneally)?
A: Its survival rate is 87.5%.
